Here are results for 1 compound from US20150374676A1, “HELICASE-PRIMASE INHIBITORS FOR USE IN A METHOD OF TREATING ALZHEIMER'S DISEASE” (AICURIS GMBH & CO. KG, priority 2013, published 2015).

SMILES strings stand for the structures.

Data set [1] can be described thus: effect of food intake on pharmacokinetics. The settings on record: human blood plasma. The class given is in vivo. An excerpt:
Further, in accordance with the invention the person skilled in the art understands that food intake prior to administration of the crystalline mono mesylate monohydrate salt of N-[5-(aminosulfonyl)-4-methyl-1,3-thiazol-2-yl]-N-methyl-2-[4-(2-pyridinyl)phenyl]-acetamide of a subject may influence positively the in vivo PK/PD profile of the resultant free base of N-[5-(aminosulfonyl)-4-methyl-1,3-thiazol-2-yl]-N-methyl-2-[4-(2-pyridinyl)phenyl]-acetamide. Thus, in accordance with the invention a decreased absorption rate and a delayed tmax of the resultant free base of N-[5-(aminosulfonyl)-4-methyl-1,3-thiazol-2-yl]-N-methyl-2-[4-(2-pyridinyl)phenyl]-acetamide may be expected in […] subjects after administration of crystalline mono mesylate monohydrate salt of N-[5-(aminosulfonyl)-4-methyl-1,3-thiazol-2-yl]-N-methyl-2-[4-(2-pyridinyl)phenyl]-acetamide.

Data set [2] is described as follows: Multiple-dose escalation, steady state pharmacokinetics in healthy volunteers. The class given is in vivo, human. The settings on record: steady state after once daily single doses for 21 days.

One may read the AUC as the area under the concentration-time curve, a measure of exposure. On to `CS(=O)(=O)O.Cc1nc(N(C)C(=O)Cc2ccc(-c3ccccn3)cc2)sc1S(N)(=O)=O` [mono mesylate monohydrate salt, N-[5-(aminosulfonyl)-4-methyl-1,3-thiazol-2-yl]-N-methyl-2-[4-(2-pyridinyl)-phenyl]acetamide mono methanesulfonic acid monohydrate], for which the “t1/2z with food intake prior to administration” value in data set [1] is “remains constant”. In data set [1] (HPLC, worded 'may lead to'), the “increase in AUC with food intake prior to administration” value is on record as “at least 10%” and the “increase in mean Cmax with food intake prior to administration” value is on record as “at least 25%”. The t1/2z on average in data set [2] (100 mg dosage as free base equivalent) was 60 ± 4 h. Also, the exposure (AUC) in data set [2] (human, plasma, oral, 25 mg dosage as free base equivalent) worked out at 23400 ± 3020 ng·h/mL. Besides, in data set [2] (human, plasma, oral, 25 mg dosage as free base equivalent, read-out: mean maximum blood plasma concentration at steady state (mean Cmax,ss) of the free base), the Cmax amounted to 1360 ± 167 ng/mL. In data set [2] (human, plasma, oral, 100 mg dosage as free base equivalent), the AUC was 109000 ± 28600 ng·h/mL.
